Source: patent publication US8642063B2, “Implantable medical device coatings with biodegradable elastomer and releasable taxane agent” (priority 2008, dated 2014)

Assay: Solubility / elution of paclitaxel solid forms in porcine serum
Type: physicochemical
Details: 37° C.
From the text: For example, amorphous and dihydrate taxane solid forms may be readily identified and differentiated by visual appearance and elution rates. […] In addition, the presence of different solid forms of the taxane agent in a medical device coating can be identified and quantified by contacting the coating with an elution medium that selectively dissolves one solid form more readily than a second solid form. In solution with an elution medium, such as porcine serum or blood, the presence of the taxane agent can be identified, for example by using ultraviolet (UV) spectroscopy or high pressure liquid chromatography (HPLC). […] Non-solvated solid forms include amorphous or anhydrous solid forms.
The amount of taxane agent released from coating into the elution medium, and the rate of release of the taxane agent from a coating, can be measured by any suitable method that allows for measurement of the release of the taxane agent with a desired level of accuracy and precision. The taxane agent in the coating can be determined by dissolving the coating in a suitable elution medium and subsequently detecting the amount of taxane agent in the elution medium. The taxane agent dissolved in the elution medium can be detected using any suitable technique. […] This correlation involves the linear relationship between optical density (absorbance) and concentration of an absorbing species. […]

Structure (SMILES): CC(=O)O[C@H]1C(=O)[C@@]2(C)[C@H]([C@H](OC(=O)c3ccccc3)[C@]3(O)C[C@H](OC(=O)[C@H](O)[C@@H](NC(=O)c4ccccc4)c4ccccc4)C(C)=C1C3(C)C)[C@]1(OC(C)=O)CO[C@@H]1C[C@@H]2O [dihydrate paclitaxel, paclitaxel]
- solubility after 24 hours in porcine serum: less than 40 wt %
